# Laboratory results as given in ChEMBL document CHEMBL1765088, “5-Benzamidoisoquinolin-1-ones and 5-(ω-carboxyalkyl)isoquinolin-1-ones as isoform-selective inhibitors of poly(ADP-ribose) polymerase 2 (PARP-2)” (J Med Chem, 2011).
# Values joined by “and” are separate entries in the source; they are usually repeats but may differ in a detail not shown here. Equal values may be shown once.
# How the values were obtained:
# [1] = biological target: Poly [ADP-ribose] polymerase 2 (Mus musculus, UniProt O88554); assay: Inhibition of recombinant full length mouse PARP-2 after 10 mins using [3H]NAD+ by solution-phase assay
# Chain of Poly [ADP-ribose] polymerase 2 (O88554 whole entry): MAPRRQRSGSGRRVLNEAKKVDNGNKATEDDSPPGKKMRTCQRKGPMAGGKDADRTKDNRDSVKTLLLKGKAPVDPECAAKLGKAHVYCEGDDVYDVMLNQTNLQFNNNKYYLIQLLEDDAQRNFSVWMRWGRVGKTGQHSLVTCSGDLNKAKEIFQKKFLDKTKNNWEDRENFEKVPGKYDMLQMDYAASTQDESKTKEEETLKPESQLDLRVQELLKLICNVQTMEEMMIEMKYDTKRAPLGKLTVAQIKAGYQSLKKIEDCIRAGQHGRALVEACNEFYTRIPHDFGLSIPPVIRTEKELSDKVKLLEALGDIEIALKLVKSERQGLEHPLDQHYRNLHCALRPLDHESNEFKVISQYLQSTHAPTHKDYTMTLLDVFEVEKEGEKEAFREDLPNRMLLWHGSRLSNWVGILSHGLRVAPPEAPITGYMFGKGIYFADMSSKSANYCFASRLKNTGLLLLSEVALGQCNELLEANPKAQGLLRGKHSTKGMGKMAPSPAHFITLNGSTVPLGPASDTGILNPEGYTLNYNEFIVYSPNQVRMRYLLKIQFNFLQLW
# [2] = Selectivity ratio, ratio of IC50 for full length human PARP-1 to IC50 for recombinant full length mouse PARP-2
# [3] = Growth inhibition of human FEK4 cells after 7 days by MTS assay; settings: FEK4, 168 h
# HT-29 = assay: Growth inhibition of human HT-29 cells after 7 days by MTS assay; settings: HT-29, 168 h
# MDA-MB-231 = assay: Growth inhibition of human MDA-MB-231 cells after 7 days by MTS assay; settings: MDA-MB-231, 168 h
# [4] = biological target: Poly [ADP-ribose] polymerase 1 (Homo sapiens, UniProt P09874); assay: Inhibition of full length human PARP-1 after 10 mins by FlashPlate scintillation proximity assay
# Chain of Poly [ADP-ribose] polymerase 1 (P09874 whole entry): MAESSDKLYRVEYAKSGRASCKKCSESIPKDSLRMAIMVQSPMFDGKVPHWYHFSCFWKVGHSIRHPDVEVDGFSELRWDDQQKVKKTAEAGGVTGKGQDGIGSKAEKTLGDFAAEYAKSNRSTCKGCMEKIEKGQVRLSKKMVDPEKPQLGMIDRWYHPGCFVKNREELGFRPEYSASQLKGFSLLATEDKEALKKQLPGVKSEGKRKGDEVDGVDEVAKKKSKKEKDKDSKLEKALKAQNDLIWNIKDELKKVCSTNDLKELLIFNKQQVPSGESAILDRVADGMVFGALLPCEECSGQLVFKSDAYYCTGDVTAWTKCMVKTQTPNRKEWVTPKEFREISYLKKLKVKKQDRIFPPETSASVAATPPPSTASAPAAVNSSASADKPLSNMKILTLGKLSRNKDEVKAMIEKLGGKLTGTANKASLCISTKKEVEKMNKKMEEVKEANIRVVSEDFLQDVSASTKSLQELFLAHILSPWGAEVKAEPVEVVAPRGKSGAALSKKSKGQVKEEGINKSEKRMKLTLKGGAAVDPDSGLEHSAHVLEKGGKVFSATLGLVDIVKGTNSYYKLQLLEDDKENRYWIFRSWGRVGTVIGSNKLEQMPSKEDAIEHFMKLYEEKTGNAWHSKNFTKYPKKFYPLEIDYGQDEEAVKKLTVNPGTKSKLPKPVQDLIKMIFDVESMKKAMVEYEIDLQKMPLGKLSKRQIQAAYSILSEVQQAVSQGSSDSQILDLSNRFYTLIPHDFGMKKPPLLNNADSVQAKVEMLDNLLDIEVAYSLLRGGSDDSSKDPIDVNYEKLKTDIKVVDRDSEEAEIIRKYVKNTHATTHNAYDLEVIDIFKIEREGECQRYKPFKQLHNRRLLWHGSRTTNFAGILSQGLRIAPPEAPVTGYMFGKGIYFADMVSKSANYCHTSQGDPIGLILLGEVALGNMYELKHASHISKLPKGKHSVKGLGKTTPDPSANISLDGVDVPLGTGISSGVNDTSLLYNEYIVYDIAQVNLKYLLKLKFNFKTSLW
# LNCaP = assay: Growth inhibition of human LNCAP cells after 7 days by MTS assay; settings: 168 h
# [5] = Selectivity for recombinant full length mouse PARP-2 over full length human PARP-1
# CT26 = assay: Inhibition of mouse CT26 cell proliferation at 1 mM; assay type: functional
# [6] = biological target: PARP (mixed cellular PARPs); assay: Inhibition of mixed PARPs from broken cell nuclei by broken nuclei assay
# [7] = biological target: PARP (mixed cellular PARPs); assay: as above; remark: listed apart in the source
smiles,measurement,setting,value
O=C(Nc1cccc2c(=O)[nH]ccc12)c1cccs1,IC50,[1],7 µM
CC(C)(C)C(=O)Nc1cccc2c(=O)[nH]ccc12,Ratio IC50,[2],> 3.4
same,IC50,[3],> 200 µM
same,IC50,HT-29,> 200 µM
same,IC50,MDA-MB-231,> 200 µM
same,IC50,[4],> 100 µM
same,IC50,LNCaP,> 200 µM
same,IC50,[1],29 µM
Cc1ccc(C(=O)Nc2cccc3c(=O)[nH]ccc23)cc1,IC50,[1],6.5 µM
N#Cc1ccc(-c2cnc3cccc(C(N)=O)c3n2)cc1,Ratio,[5],12
O=C(Oc1cccc2c(O)nccc12)c1ccccc1,Ratio IC50,[2],2.75
same,Ratio,[5],60
NC(=O)c1cccc2nc(-c3ccc(Cl)cc3)cnc12,IC50,[1],0.09 µM
O=C(O)CNc1cccc2c(=O)[nH]ccc12,IC50,[1],0.55 µM
Cc1ccccc1C(=O)Nc1cccc2c(=O)[nH]ccc12,IC50,[1],5.6 µM
O=C(Nc1cccc2c(=O)[nH]ccc12)c1ccc(Cl)cc1,IC50,[1],3.9 µM
O=C(Nc1cccc2c(=O)[nH]ccc12)C1CCCCC1,IC50,[3],> 200 µM
same,IC50,HT-29,> 200 µM
same,IC50,MDA-MB-231,> 200 µM
same,IC50,[4],> 80 µM
same,IC50,LNCaP,> 200 µM
same,IC50,[1],27.9 µM
Nc1cccc2c(=O)[nH]ccc12,Ratio IC50,[2],0.9
same,IC50,[3],> 200 µM
same,IC50,HT-29,> 200 µM
same,IC50,MDA-MB-231,170 µM
same,inhibition at 1000 µM,CT26,40%
same,IC50,[4],0.94 µM and 1 µM
same,IC50,LNCaP,> 200 µM
same,IC50,[1],1.05 µM and 1 µM
O=C(O)CCc1cccc2c(=O)[nH]ccc12,IC50,[1],3 µM
O=C(Nc1cccc2c(=O)[nH]ccc12)c1ccccc1I,IC50,[1],3.2 µM
O=C(Nc1cccc2c(=O)[nH]ccc12)c1ccc(F)cc1,IC50,[1],3.6 µM
O=C(O)/C=C/c1cccc2c(=O)[nH]ccc12,IC50,[6],< 11 µM
same,IC50,[1],4.7 µM
O=c1[nH]c(CCCCN2CC=C(c3ccc(F)cc3)CC2)nc2c(Cl)cccc12,IC50,[1],0.5 µM
O=C(Nc1cccc2c(=O)[nH]ccc12)c1ccccc1,IC50,[3],> 200 µM
same,IC50,HT-29,> 200 µM
same,IC50,MDA-MB-231,139 µM
same,IC50,LNCaP,98 µM
same,IC50,[1],1.5 µM
O=C(Oc1cccc2c(=O)[nH]ccc12)c1ccccc1,IC50,[4],4.1 µM
same,IC50,[1],1.5 µM
O=C(Nc1cccc2c(=O)[nH]ccc12)c1ccc([N+](=O)[O-])cc1,IC50,[1],1.6 µM
O=C(Oc1cccc2c1CCNC2=O)c1ccccc1,Ratio,[5],16
Nc1cccc2c(=O)n(CCC(=O)O)ccc12,IC50,[1],1.6 µM
O=C(O)c1cccc2c(=O)[nH]ccc12,IC50,[7],< 13 µM
same,IC50,[6],< 13 µM
same,IC50,[4],> 25 µM
same,IC50,[1],> 25 µM
O=C(Nc1cccc2c(=O)[nH]ccc12)c1ccc(I)cc1,IC50,[1],1.3 µM
O=C(Nc1cccc2c(=O)[nH]ccc12)C12CC3CC(CC(C3)C1)C2,IC50,[3],> 200 µM
same,IC50,HT-29,> 200 µM
same,IC50,MDA-MB-231,> 200 µM
same,IC50,[4],> 50 µM
same,IC50,LNCaP,42 µM
same,IC50,[1],19.9 µM
O=C(Nc1cccc2c(=O)[nH]ccc12)c1ccc(C(F)(F)F)cc1,IC50,[1],3.3 µM
Cc1cc2c(NC(=O)c3ccccc3)cccc2c(=O)[nH]1,IC50,[1],6.3 µM
